Source: US20190119193A1, “COMPOSITION FOR REGULATING PLANT GROWTH, METHOD FOR TREATING PLANTS THEREWITH, AND ACTIVE INGREDIENT THEREOF” (Ivan Aleksandrovich Starikov, priority 2016, published 2019)

Legend:
[1] = Dilution of DMSO solution (10 g/L) in water; format: physicochemical; conditions: solution in DMSO (10 g/L) diluted in large quantities of water
[2] = test system: spring wheat of “Zlata” variety; assay: Field tests of GS-200 on wheat; format: in vivo
Experimental: After that GS-200 were dissolved in dimethyl sulfoxide to give solution of 10 g/L concentration, then water was added to give aqueous solutions of GS-200 with concentrations of 5.3·10^−7 M, 1.7·10^−8 M, 5.3·10^−9 M, 1.7·10^−10 M, 5.3·10^−11 M, 1.7·10^−12 M.
The field tests of the obtained aqueous solutions of GS-200 on spring wheat of “Zlata” variety were carried out. The tests were carried out in agroclimatic zone I, on the experimental field of the Moscow RIA «Nemchinovka» Agricultural technology center's Laboratory for the Development of Grain Protection Systems (Moscow region, Odintsovo district, Novoivanovskoe, 2017), according to the method adopted for registration tests of plant growth regulators: Methodology guidelines for approval tests of new fertilizers, bioregulators and plant regulators. Moscow-Vladimir, 2009, p. 104; State procedure of strain tests for agricultural crop. Corny, leguminous and forage cultures. Edition 1, M., 1985—p. 269, Edition 2, M., 1989—p. 194; State procedure of strain tests for agricultural crop. Corny, leguminous and forage cultures. Edition 1, M., 1985—p. 269, Edition 2, M., 1989—p. 194; All-Union Standard 10-108-87; All-Union State Standard 26212-91; All-Union State Standard 26207-91; All-Union Standard 10-108-87.
The soil of the testing ground is sod-podzolic on the covering silt. The depth of the topsoil is 27-30 centimeters, humus content is up to 2.2%, pHsalt is about 5.8-5.9, labile phosphorus index is 135-145 mg/kg, and exchange potassium index is 100-110 mg/kg.
Tests were conducted from Apr. 24 to Aug. 17, 2017. The weather conditions of the whole growing period were highly unfavorable (normal amount of precipitations was exceeded more than one and a half times; the temperature was much lower than long-term annual average), which is a strong stress factor.
Control test—without treatment with growth regulators.
Area of experimental plots—50 m^2, accounting area—40 m^2. Fourfold replication of the experiments.
Preceding crop was winter wheat. Immediately after the autumn harvesting of winter crops the area was treated with disc harrow to a depth of 10-12 cm. Then, fall plowing to a depth of 18-21 cm by a reverse plow and harrowing were carried out.
Before seeding the test crop, the soil was fertilized with nitrogen-phosphorus-potassium fertilizer in a dose of N64P64K64. Date of sowing: Apr. 24, 2017. Seeding rate: 5.5 million of germinated grains per 1 hectare.
Before seeding, all the seeds were treated with “Vincite Forte” fungicide with a consumption rate of 0.8 L per ton of seeds, as well as the aqueous solution of GS-200 selected for the experiment with a consumption rate of 10 L per ton of seeds (this aqueous solution was directly used as a liquid for treatment) or without a growth regulator, depending on the experiment. The following concentrations of the GS-200 solutions were used for treatment: 5.3·10^−7 M, 5.3·10^−9 M, […].
At the tillering phase (May 29-30) the crops were sprayed against weeds with “Linthur” herbicide at a dose of 175.0 g/ha. In the beginning of booting stage (June 12-13), in order to prevent blasts and leaf diseases, crops were sprayed with tank mixture of insecticide “BoreiNeo” in a dose 0.5 L/ha and fungicide “Alto Super” in a dose 0.5 L/ha. In the beginning of ear stage (June 28) crops on the testing ground were sprayed with tank mixture of fungicide “Rakurs” (against Septoria blight and Fusarium blight) in a dose 0.5 L/ha and a solution of GS-200 in a dose 300 L/ha. Spraying with aqueous solutions of GS-200 was carried out for all variants, where GS-200 were used for seed treatment. The concentration of the spraying solution was one-thirtieth of the concentration of the solution previously used for treatment of seeds: 1.7·10^−8 M, 1.7·10^−10 M and 1.7·10^−12 M respectively.
Harvesting of experimental plots was carried out on August 17, before harvesting test sheaves of 0.25 m^2 of each variant of the experiment were selected for structural analysis. […]

[3] = seeds treated 5.3 · 10^−7 M, sprayed 1.7·10^−8 M
[4] = seeds treated 5.3 · 10^−9 M, sprayed 1.7·10^−10 M
[5] = seeds treated 5.3 · 10^−11 M, sprayed 1.7·10^−12 M

## CCOC(=O)C(=O)CC(=O)c1ccccc1 [GS-310, Ethyl 2,4-dioxo-4-phenylbutanoate]
[1]
  Appearance on dilution in water: clear solution

## COC(=O)C(=O)C(C)C(=O)OC (centres unmarked) [GS-171, Dimethyl 2-methyl-3-oxobutanedioate]
[1]
  Appearance on dilution in water: clear solution

## CCN(CC)C(=O)CC(=O)C(N)=O [GS-203, N^4,N^4-Diethyl-2-oxobutanediamide]
[1]
  Appearance on dilution in water: clear solution

## CCOC(=O)C(=O)CC(C)=O [GS-300, Ethyl 2,4-dioxovalerate]
[1]
  Appearance on dilution in water: clear solution

## CCOC(=O)C(=O)CC(=O)N(CC)CC [GS-202, Ethyl 4-(diethylamino)-2,4-dioxobutanoat]
[1]
  Appearance on dilution in water: clear solution

## CCOC(=O)C(=O)C(C(=O)OCC)c1ccccc1 (centres unmarked) [GS-199, Diethyl 2-oxo-3-phenylbutanedioate]
[1]
  Appearance on dilution in water: clear solution

## CCOC(=O)C(=O)C(Sc1ccc(C)cc1)C(=O)OCC (centres unmarked) [GS-184, Diethyl 2-[(4-Methylphenyl)Sulfanyl]-3-Oxobutanedioate]
[1]
  Appearance on dilution in water: clear solution

## CCOC(=O)C(=O)CC(=O)N(C)C [GS-200, Ethyl 4-(dimethylamino)-2,4-dioxobutanoat]
[2]; [3]
  1000 grains weight: 45.4 g
  Gluten: 27.5 % dry basis
  Main head length: 8.24 cm
  Number of seeds from main head: 38.84 pcs
  Number of spikelets in main head: 15.88 pcs
  Number of stems: 450 pcs/m^2
  Number of yielding stems: 398 pcs/m^2
  Plant height: 121.1 cm
  Productive tilling capacity: 1.46
  Protein (N 5.7): 12.21 % dry basis
  Starch: 58.40 % dry basis
  Total tilling capacity: 1.65
  Weight of grains from main head: 1.89 g
  Yield: 5.34 t/ha
  Yield, % (comparing to control): 124.8%
[2]; [4]
  1000 grains weight: 47.2 g
  Gluten: 26.0 % dry basis
  Main head length: 8.20 cm
  Number of seeds from main head: 37.40 pcs
  Number of spikelets in main head: 15.56 pcs
  Number of stems: 462 pcs/m^2
  Number of yielding stems: 388 pcs/m^2
  Plant height: 118.5 cm
  Productive tilling capacity: 1.53
  Protein (N 5.7): 11.56 % dry basis
  Starch: 58.66 % dry basis
  Total tilling capacity: 1.82
  Weight of grains from main head: 1.90 g
  Yield: 5.37 t/ha
  Yield, % (comparing to control): 125.5%
[2]; [5]
  1000 grains weight: 44.1 g
  Gluten: 26.6 % dry basis
  Main head length: 7.56 cm
  Number of seeds from main head: 34.28 pcs
  Number of spikelets in main head: 15.56 pcs
  Number of stems: 398 pcs/m^2
  Number of yielding stems: 360 pcs/m^2
  Plant height: 118.7 cm
  Productive tilling capacity: 1.71
  Protein (N 5.7): 11.82 % dry basis
  Starch: 59.05 % dry basis
  Total tilling capacity: 1.90
  Weight of grains from main head: 1.60 g
  Yield: 4.65 t/ha
  Yield, % (comparing to control): 108.6%
[1]
  Appearance on dilution in water: clear solution

## CCOC(=O)C(=O)CC(=O)c1c[nH]c2ccccc12 [GS-312, Ethyl 4-(1H-indol-3-yl)-2,4-dioxobutanoate]
[1]
  Appearance on dilution in water: bright yellow fluorescent suspension

## CCOC(=O)CC(=O)C(=O)O [GS-197, 4-Ethoxy-2,4-dioxobutanoic acid]
[1]
  Appearance on dilution in water: clear solution

## COC(=O)C1CNC(=O)C1=O (centres unmarked) [GS-500, Methyl 4,5-dioxopyrrolidine-3-carboxylate]
[1]
  Appearance on dilution in water: clear solution

## CCOC(=O)CC(=O)C(=O)OCC [GS-195, Diethyl ester of oxaloacetic acid]
[1]
  Appearance on dilution in water: clear solution

## CN(C)C(=O)C(=O)CC(=O)N(C)CCO [GS-214, N^4-(2-hydroxyethyl)-N^1,N^1,N^4-trimethyl-2-oxobutanediamide]
[1]
  Appearance on dilution in water: clear solution

## COC(=O)C(=O)C(Cl)C(=O)OC (centres unmarked) [GS-172, Dimethyl 2-chloro-3-oxobutanedioate]
[1]
  Appearance on dilution in water: clear solution
